Eight compounds from patent US20230192701A1, “BICYCLIC KINASE INHIBITORS AND USES THEREOF” (iOmx Therapeutics AG, priority 2020, published 2023) can be followed below.

One series has as its system MC38 tumour cells. The series is described as follows: TNF-sensitised cell viability assay (CellTiter-Glo), MC38. The following applies: for IC50: Mus musculus, MC-38, read-out: MC38 IC50 (at 100 ng/ml rMuTNF), 100 ng/ml rMuTNF, 72 h. The format is cell-based, murine. The method, then: (§1) Cell viability of HCT116 tumour cells was measured using the CellTiter-Glo (CTG) luminescent cell viability assay (Promega, Madison, USA) according to the manufacturer's protocol. In short, 1×10^3 HCT116 cells were seeded in a 384-well plate for 24 h and subsequently treated with different concentrations of compounds and 10 ng/ml rHuTNF for 72 h at 37° C. and 5% CO2. After incubation, CTG reagent was added to the wells and cells were lysed for 10 min. Read-out was performed using the Tecan reader with 0.1 sec counting time. TNF-induced cell killing in human PANC1 and murine MC38 tumour cells was measured analogously to the assay in human HCT116 cells, except that for the PANC1 assay 100 ng/ml rHuTNF and for the MC38 assay 100 ng/ml rMuTNF were used.

For the next series, the system named is HCT116 tumour cells. The series is described as follows: TNF-sensitised cell viability assay (CellTiter-Glo), HCT116. Type of series: cell-based, human. The following applies: for IC50: Homo sapiens, HCT-116, read-out: HCT116 IC50 (at 10 ng/ml rHuTNF), 10 ng/ml rHuTNF, 72 h; for sensitisation of HCT116 tumour cells to the cytotoxic effect of TNF compared to PY1: in words. The method, then: as §1
A general note: Cellular ATP, detected with luciferase, serves as a proxy for viable cell number.

The next series has as its system PANC1 tumour cells. Description: TNF-sensitised cell viability assay (CellTiter-Glo), PANC1. Conditions: for IC50: Homo sapiens, PANC-1, read-out: PANC IC50 (at 100 ng/ml rHuTNF), 100 ng/ml rHuTNF, 72 h; for sensitisation of PANC tumour cells to the cytotoxic effects of TNF compared to PY1: in words. The format is cell-based, human. As to the method: as §1
Another series concerns the target SIK3 (Homo sapiens, UniProt Q9Y2K2). Description: radiometric protein kinase assay (33PanQinase Activity Assay), SIK3. Conditions: for IC50: ATP 1.0 μM, substrate RBER-CHKtide; for inhibiting SIK3 compared to PY1 / selectivity towards SIK3 over SIK2: in words. The format is biochemical. As to the method: (§2) The IC50s of the compounds against the SIK family of protein-serine/threonine kinases (SIK2 and SIK3) were determined as followed. Briefly, a radiometric protein kinase assay (33PanQinase® Activity Assay) was used for measuring the kinase activity of the two protein kinases. The kinase assays were performed in 96-well FlashPlates™ from PerkinElmer (Boston, Mass., USA) in a 50 uL reaction volume. The reaction cocktail was pipetted in four steps in the following order: • […] (standard buffer/[gamma-33P]-ATP) • 10 uL of ATP solution (in water) • 5 uL of test compound (in 10% DMSO) • 20 uL enzyme/substrate mix
(§3) The following amounts of enzyme and applicable substrate were used per well:
(§4) The reaction cocktails were incubated at 30 °C for 60 minutes. The reaction was stopped with 50 uL of 2% (v/v) H3PO4, plates were aspirated and washed two times with 200 μL 0.9% (w/v) NaCl. Incorporation of 33Pi was determined with a microplate scintillation counter (Microbeta, Wallac). All assays were performed with a BeckmanCoulter/SAGIAN™ Core System.

Another series addresses SIK2 (Homo sapiens, UniProt Q9H0K1). Description: radiometric protein kinase assay (33PanQinase Activity Assay), SIK2. The format is biochemical. Conditions: for IC50: ATP 1.0 μM, substrate RBER-CHKtide; for inhibiting SIK2 compared to PY1: in words. As to the method: as §2, §3, §4
Series [1] concerns the target 335 wild-type protein kinases. The series is described as follows: single-point inhibition assays, residual activity (ProQinase Kinase Profiler). The following applies: single-point 0.1 uM and 1 uM, 335 kinases. Type of series: biochemical. The method, then: Several compounds of Formula (I) described herein were also tested in single-point (0.1 uM and 1 uM) inhibition assays over a diverse set of 335 wild-type protein (ProQinase “Kinase Profiler”; ProQinase, Freiburg, Germany), in which the residual activity of each kinase was determined. […] Secondly, the residual activity of each kinase was compared to other compounds tested (in particular, against the prior art compounds PY1) by use of scatter plots.

The structures appear in SMILES notation.

Chain of SIK2 (Q9H0K1 whole entry): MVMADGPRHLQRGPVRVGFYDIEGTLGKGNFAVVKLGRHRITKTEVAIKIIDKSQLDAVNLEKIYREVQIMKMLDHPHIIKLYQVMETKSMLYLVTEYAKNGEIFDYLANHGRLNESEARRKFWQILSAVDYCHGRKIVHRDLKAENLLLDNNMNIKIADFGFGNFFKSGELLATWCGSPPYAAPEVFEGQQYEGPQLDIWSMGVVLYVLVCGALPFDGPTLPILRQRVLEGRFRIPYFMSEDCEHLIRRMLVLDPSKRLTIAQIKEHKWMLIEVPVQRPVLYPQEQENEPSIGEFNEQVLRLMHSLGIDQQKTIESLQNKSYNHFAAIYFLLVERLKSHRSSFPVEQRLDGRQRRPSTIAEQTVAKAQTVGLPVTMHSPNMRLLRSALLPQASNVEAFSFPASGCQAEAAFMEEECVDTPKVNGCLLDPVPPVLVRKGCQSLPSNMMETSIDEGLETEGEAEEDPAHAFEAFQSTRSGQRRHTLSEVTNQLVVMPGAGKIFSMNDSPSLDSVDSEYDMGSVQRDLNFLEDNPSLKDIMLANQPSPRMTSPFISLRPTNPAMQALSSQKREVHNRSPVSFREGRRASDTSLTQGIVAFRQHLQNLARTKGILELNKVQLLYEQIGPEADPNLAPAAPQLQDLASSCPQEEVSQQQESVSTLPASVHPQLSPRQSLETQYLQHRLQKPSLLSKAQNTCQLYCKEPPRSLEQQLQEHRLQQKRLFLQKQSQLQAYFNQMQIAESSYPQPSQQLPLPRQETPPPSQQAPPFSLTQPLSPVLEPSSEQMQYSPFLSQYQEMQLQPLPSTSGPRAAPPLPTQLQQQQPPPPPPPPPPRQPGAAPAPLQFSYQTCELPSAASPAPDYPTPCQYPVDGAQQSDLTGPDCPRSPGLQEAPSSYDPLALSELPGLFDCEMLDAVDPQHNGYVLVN
Chain of SIK3 (Q9Y2K2 whole entry): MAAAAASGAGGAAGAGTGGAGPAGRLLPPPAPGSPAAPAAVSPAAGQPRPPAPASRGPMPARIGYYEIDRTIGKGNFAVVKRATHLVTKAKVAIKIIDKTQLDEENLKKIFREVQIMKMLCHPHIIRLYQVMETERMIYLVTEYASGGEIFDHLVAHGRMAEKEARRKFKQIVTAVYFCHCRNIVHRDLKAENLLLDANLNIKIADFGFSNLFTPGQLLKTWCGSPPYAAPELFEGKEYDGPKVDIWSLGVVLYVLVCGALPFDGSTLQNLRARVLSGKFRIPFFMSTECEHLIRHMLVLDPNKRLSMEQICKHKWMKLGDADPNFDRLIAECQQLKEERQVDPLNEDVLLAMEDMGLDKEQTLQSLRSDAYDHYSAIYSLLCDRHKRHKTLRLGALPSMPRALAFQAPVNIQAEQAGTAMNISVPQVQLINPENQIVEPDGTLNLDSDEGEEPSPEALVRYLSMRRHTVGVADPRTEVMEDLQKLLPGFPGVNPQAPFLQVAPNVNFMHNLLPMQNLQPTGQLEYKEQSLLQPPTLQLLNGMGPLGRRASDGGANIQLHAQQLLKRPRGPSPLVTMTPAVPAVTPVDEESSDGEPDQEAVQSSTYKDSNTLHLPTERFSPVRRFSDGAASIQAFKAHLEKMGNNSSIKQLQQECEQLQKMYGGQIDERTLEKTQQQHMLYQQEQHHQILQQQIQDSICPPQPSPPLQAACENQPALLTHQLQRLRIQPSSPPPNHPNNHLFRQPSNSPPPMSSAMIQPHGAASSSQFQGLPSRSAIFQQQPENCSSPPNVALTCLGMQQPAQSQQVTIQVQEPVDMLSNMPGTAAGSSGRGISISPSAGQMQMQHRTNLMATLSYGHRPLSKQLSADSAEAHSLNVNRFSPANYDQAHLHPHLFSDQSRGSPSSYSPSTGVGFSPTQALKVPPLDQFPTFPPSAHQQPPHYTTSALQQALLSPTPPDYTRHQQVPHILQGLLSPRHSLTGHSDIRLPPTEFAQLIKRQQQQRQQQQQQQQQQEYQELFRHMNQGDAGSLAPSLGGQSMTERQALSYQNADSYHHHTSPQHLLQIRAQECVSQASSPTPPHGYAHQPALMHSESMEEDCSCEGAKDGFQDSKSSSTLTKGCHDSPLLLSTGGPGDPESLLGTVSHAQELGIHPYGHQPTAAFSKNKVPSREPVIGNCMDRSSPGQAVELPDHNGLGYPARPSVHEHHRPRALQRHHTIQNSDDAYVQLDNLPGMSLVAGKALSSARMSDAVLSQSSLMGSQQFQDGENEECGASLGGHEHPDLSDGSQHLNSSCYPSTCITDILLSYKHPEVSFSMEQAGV

Take `COc1ccc(N2C(=O)N(c3c(CF)csc3Cl)Cc3cnc(Nc4ccc(C5CCN(C)CC5)cc4OC)nc32)cc1` [AA10, 3-(2-chloro-4-(fluoromethyl)thiophen-3-yl)-7-((2-methoxy-4-(1-methylpiperidin-4-yl)phenyl)amino)-1-(4-methoxyphenyl)-3,4-dihydropyrimido[4,5-d]pyrimidin-2(1H)-one]: the IC50 lay within 1000 to 1500 nM with MC38 tumour cells; 1000 to 1500 nM in the series on HCT116 tumour cells; 1000 to 1500 nM in the series with PANC1 tumour cells; 100 to 200 nM against SIK3; 50 to 100 nM at SIK2.

For the compound `COCCN1C(=O)N(c2c(CF)csc2Cl)Cc2cnc(Nc3ccc(C4CCN(C)CC4)cc3OC)nc21` [AA12, 3-(2-chloro-4-(fluoromethyl)thiophen-3-yl)-7-((2-methoxy-4-(1-methylpiperidin-4-yl)phenyl)amino)-1-(2-methoxyethyl)-3,4-dihydropyrimido[4,5-d]pyrimidin-2(1H)-one], the IC50 in the series on MC38 tumour cells was 1000 to 1500 nM; with HCT116 tumour cells it was greater than 1500 nM; at SIK3, less than 50 nM; against SIK2, less than 50 nM. On SIK3, the “inhibiting SIK3 compared to PY1” value was “superior in inhibiting SIK2 and SIK3 compared to PY1”. On SIK3, the “selectivity towards SIK3 over SIK2” value is “increased selectively towards SIK3 over SIK2”. For the same compound, the “inhibiting SIK2 compared to PY1” value at SIK2 was “superior in inhibiting SIK2 and SIK3 compared to PY1”.

With `COc1cc(C2CCN(C)CC2)ccc1Nc1ncc2c(n1)N(C)C(=O)N(c1c(CF)csc1Cl)C2` [AA11, 3-(2-chloro-4-(fluoromethyl)thiophen-3-yl)-7-((2-methoxy-4-(1-methylpiperidin-4-yl)phenyl)amino)-1-methyl-3,4-dihydropyrimido[4,5-d]pyrimidin-2(1H)-one], the IC50 in the series on MC38 tumour cells was 1000 to 1500 nM; with HCT116 tumour cells it was greater than 1500 nM; in the series on PANC1 tumour cells, greater than 1500 nM; against SIK3, less than 50 nM; at SIK2 it was 100 to 200 nM. In addition, the “selectivity towards SIK3 over SIK2” value on SIK3 is “increased selectively towards SIK3 over SIK2”. Also, the “kinases inhibited less strongly than by PY1” value in series [1] is “BMX, TEC and in particular BTK”. Further, the “kinases inhibited more strongly than by PY1” value in series [1] was “BRAF, NEK2, PRK2, PKC, and in particular KIT, RIPK2, ABL2 and PDGF-alpha”. In addition, the “overall kinase profile compared to prior art compound PY1” value in series [1] is “substantially different profile of inhibition of the kinases compared to the prior art compound PY1”.

For `COc1ccc(N2C(=O)N(c3c(CF)csc3Cl)Cc3cnc(Nc4ccc(C5CCN(C)C(C)C5)cc4)nc32)nc1` (stereo not drawn) [AA9, 3-(2-chloro-4-(fluoromethyl)thiophen-3-yl)-7-((4-(l,2-dimethylpiperidin-4-yl)phenyl)amino)-1-(5-methoxypyridin-2-yl)-3,4-dihydropyrimido[4,5-d]pyrimidin-2(1H)-one], the IC50 in the series with MC38 tumour cells was 500 to 1000 nM; in the series with HCT116 tumour cells, less than 100 nM; in the series on PANC1 tumour cells, 500 to 1000 nM; against SIK3, less than 50 nM; against SIK2 it was less than 50 nM. Moreover, the “sensitisation of HCT116 tumour cells to the cytotoxic effect of TNF compared to PY1” value with HCT116 tumour cells is given as “much stronger effect compared to the prior art compound PY1”. For the same compound, on SIK3, the “inhibiting SIK3 compared to PY1” value is “superior in inhibiting SIK2 and SIK3 compared to PY1”. In addition, on SIK2, the “inhibiting SIK2 compared to PY1” value is “superior in inhibiting SIK2 and SIK3 compared to PY1”.

For the compound `COc1ccc(N2C(=O)N(c3c(CF)csc3Cl)Cc3cnc(Nc4ccc(C5CC(C)N(C)C(C)C5)cc4)nc32)nc1` (stereo not drawn) [AA8, 3-(2-chloro-4-(fluoromethyl)thiophen-3-yl)-1-(5-methoxypyridin-2-yl)-7-((4-(l,2,6-trimethylpiperidin-4-yl)phenyl)amino)-3,4-dihydropyrimido[4,5-d]pyrimidin-2(lH)-one], the IC50 is 500 to 1000 nM in the series with MC38 tumour cells; less than 100 nM in the series on HCT116 tumour cells; 100 to 500 nM in the series on PANC1 tumour cells; less than 50 nM at SIK3; less than 50 nM against SIK2. Besides, the “sensitisation of HCT116 tumour cells to the cytotoxic effect of TNF compared to PY1” value in the series on HCT116 tumour cells is “much stronger effect compared to the prior art compound PY1”. Moreover, in the series with PANC1 tumour cells, the “sensitisation of PANC tumour cells to the cytotoxic effects of TNF compared to PY1” value was “stronger effect than PY1”. For the same compound, the “inhibiting SIK3 compared to PY1” value against SIK3 was “superior in inhibiting SIK2 and SIK3 compared to PY1”. Besides, at SIK2, the “inhibiting SIK2 compared to PY1” value is “superior in inhibiting SIK2 and SIK3 compared to PY1”.

With `COc1ccc(N2C(=O)N(c3c(C(F)F)csc3Cl)Cc3cnc(Nc4ccc(C5CCN(C)CC5)cc4OC)nc32)nc1` [AA13, 3-(2-chloro-4-(difluoromethyl)thiophen-3-yl)-7-((2-methoxy-4-(1-methylpiperidin-4-yl)phenyl)amino)-1-(5-methoxypyridin-2-yl)-3,4-dihydropyrimido[4,5-d]pyrimidin-2(1H)-one], the IC50 was 1000 to 1500 nM in the series with MC38 tumour cells; greater than 1500 nM in the series on HCT116 tumour cells; greater than 1500 nM in the series on PANC1 tumour cells; 100 to 200 nM at SIK3; 100 to 200 nM on SIK2. In addition, the “selectivity towards SIK3 over SIK2” value at SIK3 is given as “increased selectively towards SIK3 over SIK2”.

As to `COc1ccc(N2C(=O)N(c3c(C)nn(C)c3C)Cc3cnc(Nc4ccc(C5CCN(C)CC5)cc4OC)nc32)nc1` [AA4, 7-((2-methoxy-4-(l-methylpiperidin-4-yl)phenyl)amino)-1-(5-methoxypyridin-2-yl)-3-(1,3,5-trimethyl-lH-pyrazol-4-yl)-3,4-dihydropyrimido[4,5-d]pyrimidin-2(1H)-one], the IC50 is greater than 10000 nM against SIK3 and 5000 to 10000 nM at SIK2.

For the compound `COc1ccc(N2C(=O)N(c3c(CF)csc3Cl)Cc3cnc(Nc4ccc(C5CCN(C)CC5)cc4OC)nc32)nc1` [AA7, 3-(2-chloro-4-(fluoromethyl)thiophen-3-yl)-7-((2-methoxy-4-(l-methylpiperidin-4-yl)phenyl)amino)-1-(5-methoxypyridin-2-yl)-3,4-dihydropyrimido[4,5-d]pyrimidin-2(1H)-one], the IC50 in the series with MC38 tumour cells is 100 to 500 nM; in the series with HCT116 tumour cells, less than 100 nM; with PANC1 tumour cells, 100 to 500 nM; against SIK3, 100 to 200 nM; against SIK2, 50 to 100 nM. In addition, the “sensitisation of MC38 tumour cells to the cytotoxic effect of TNF” value in the series on MC38 tumour cells (in words) is given as “surprisingly potent at sensitising cells to the cytotoxic effect of TNF”. Further, in the series on HCT116 tumour cells, the “sensitisation of HCT116 tumour cells to the cytotoxic effect of TNF compared to PY1” value is reported as “much stronger effect compared to the prior art compound PY1”. The “sensitisation of PANC tumour cells to the cytotoxic effects of TNF compared to PY1” value in the series on PANC1 tumour cells was “stronger effect than PY1”.
